Assay results taken from US20110124586A1, “EXTERNAL PREPARATION FOR SKIN, AND WRINKLE-REPAIRING AGENT” (Kao Corporation, priority 2008, published 2011).

Key:
[1] = tested on: photoaged skin; experiment: Wrinkle reduction test on photoaged skin of hairless mice (UVA/UVB irradiation); assay type: in vivo; conditions: photoaged hairless mouse skin
Source text: A wrinkle-reducing effect in the case of applying a sample containing a base alone or lauryl thiogalactoside (compound of Production Example 2) to photoaged skin was examined by the following test methods.
Ten hairless mice, which were 10 weeks old at the start of the test, were used for each group.
Photoaging was induced by irradiation with UVA and UVB once a day, five times a week for 8 weeks. An irradiation dose was increased every week from 20 J/cm^2 to 25 J/cm^2 and to 30 J/cm^2 for UVA, from 20 mJ/cm^2 to 30 mJ/cm^2 and to 40 mJ/cm^2 for UVB, and the maximum dose was irradiated in Week 3 or later.
A wrinkle-reducing effect was evaluated by a wrinkle score and an epidermal thickness. The wrinkle score was determined in accordance with the method of Bissett et al. (Photochem. Photobiol. 46: 367-378, 1987). In other words, the size and depth of wrinkles were comprehensively evaluated with naked eyes and scored with the following four grades: 3, “large and deep wrinkles can be confirmed”; 2, “wrinkles can be confirmed”; 1, “no wrinkles can be confirmed”; and 0, “normal skin texture can be observed”. […]
A sample containing lauryl thiogalactoside in an amount of 1% in a 50 vol % ethanol aqueous solution (base) was prepared (Example 1). […] Subsequently, after the completion of the application, the wrinkle score was determined. […]

[2] = Moisture retention test (rate of decrease in water content of solution); assay type: physicochemical; conditions: 10 mass % in ion exchanged water; silica gel desiccator 25° C., RH 20%; vs water alone; FIG. 1
Experimental: In accordance with the following test method, the rate of decrease in water content of lauryl thiogalactoside (compound of Production Example 2) solution was calculated to evaluate moisture-retaining property.
0.5 g of a sample prepared by adjusting a concentration of lauryl thiogalactoside to 10 mass % with ion exchanged water was weighed in a container made of a resin to measure an initial weight (W0).
Next, the sample was left to stand still in a silica gel desiccator (RT; 25° C., RH; 20%) to measure a time-dependent weight (Wt) of the sample.
After the completion of the test, the sample was dried in a dryer (50° C.) for 2 hours and then left to stand still in a silica gel desiccator for 2 hours to measure a dry weight (Ws).
The same operation was conducted for a control sample prepared using water alone, and the rate of decrease in water content was calculated with the following equation.
Rate of decrease in water content (%)=Ht/H0×100(Ht=Wt−Ws, H0=W0−Ws)

[3] = Ordinary safety test

CCCCCCCCCCCCSC1OC(CO)C(O)C(O)C1O (stereo not shown) [lauryl thiogalactoside]
Effect on epidermal thickening (in words) [1]: had an effect of alleviating the epidermal thickening owing to photoaging
Effect on wrinkles / wrinkle score (in words) [1]: effective for wrinkles induced by photoaging
Moisture-retaining property (rate of decrease in water content) [2]: did not suppress water volatilization in a dry state and exhibited an insufficient moisture-retaining action
Result in an ordinary safety test [3]: does not have any problem in an ordinary safety test
